The record followed here is US20070155023A1, “Identification of proteins and other species with emissive chelating label” (Massachusetts Institute of Technology, priority 2005, published 2007).

Data set [1] relates to cell cultures (nuclei stained with Hoechst 33285). Nature of the data set: Nuclear morphology study of NTA-DCF toxicity. It counts as cell-based. Here is the method: Cells were incubated with either NTA-DCF or PBS for five min, washed twice with PBS, and fixed for 5 min with 4% p-formaldehyde. After fixation, the cells were rinsed four times with PBS (5 min each wash). Hoechst 33285 dye (Molecular Probes) was added to the second rinse such that the final concentration reached 2 μg/ml.

The subject of another data set is HEK 293-T cells. Nature of the data set: Cell permeability of living HEK 293-T cells. To be noted: alone or as its Ni^2+ adduct, 5 μM, 5 min, 22° C., PBS. It is filed as in vitro ADME. Here is the method: (§1) The cells as described in Example 3 were used for labeling with NTA-DCF two days after transfection with plasmid. Immediately prior to labeling, the cells were washed once with PBS. A stock solution of complexed Ni^2+-NTA-DCF was prepared by mixing 2.5 mM NiCl2 and 2.5 mM NTA-DCF in a 1:1 ratio in PBS. HeLa and HEK 293-T cells were each washed once with PBS, then incubated with 5 μM Ni^2+-NTA-DCF for 5 min at 22° C. in PBS. The cells were subsequently rinsed twice with PBS, fixed with 4% paraformaldehyde for 5 min, washed with two portions of PBS, and mounted using Vectashield anti-fading reagent (Vector Labs). As a negative control, a cell sample was incubated with NTA-DCF without added Ni^2+. In order to gauge the reversibility of staining, 5 mM EDTA was added to a sample of cells stained with 5 μM NTA-DCF and 5 μM Ni^2+. […] This impermeability can be exploited to label and image selectively proteins on the extracellular side of the cell membrane. The NTA-DCF composition was premixed with an equimolar concentration of NiCl2, and the mixture was added to a sample containing either HeLa or HEK 293-T cells.

Data set [2] is described as follows: Photophysical properties (absorbance, emission, quantum yield) in pH 7 buffer. To be noted: for Quantum yield Φ: no metal ion, pH 7, 22° C., relative to fluorescein. It counts as physicochemical. The text has this: General Procedure. Acetonitrile (MeCN) was dried over 3 Å molecular sieves. Triethylamine (Et3N) and chloroform (CHCl3) were purchased from Aldrich and used as received. 6-Carboxy-2′,7′-dichlorofluorescein-3′,6′-diacetatesuccinimidyl ester was synthesized by a method previously developed in this laboratory. ^1N,N-Bis(carboxymethyl)-L-lysine hydrate was purchased from Fluka and used as received. ^1H and ^13C NMR spectra were acquired on either a Varian 300 Mhz or a Varian 500 MHz spectrometer and referenced to internal standards. IR spectra were collected on an Avatar 360 FT-IR instrument. Melting points were measured with a Mel-Temp apparatus. Fluorescence spectra were obtained on a Hitachi F-3020 spectrofluorimeter, and UV/vis spectra were acquired on a Cary 1E spectrophotometer. Low-resolution mass spectra were collected on an Agilent 1100 Series LC/MSD system. High-resolution mass spectra were provided by staff at the MIT Department of Chemistry Instrumentation Facility. Preliminary cell images were acquired with a Nikon Eclipse TS100 microscope equipped with an RT Diagnostics camera with illumination provided by a Chiu Mercury 100 W lamp. Magnification was 20×. The cell imaging system was operated with Spot Advanced software. Fluorescence images were obtained using a FITC-HYQ filter cube (excitation 460-500 nm, bandpass 510-560 nm). Select cell images were acquired with a LSM510 confocal microscope.
Aqueous solutions were prepared with Millipore water. A 2.25 mM stock solution of NTA-DCF in DMSO was prepared, separated into aliquots, stored at −25° C., and thawed in the dark immediately before use. All spectroscopic data were collected in a pH 7 buffer solution of 50 mM piperazine-N,N′-bis(2-ethanesulfonic acid) (PIPES) and 100 mM KCl unless noted otherwise. Solution magnetic susceptibilities were measured by the Evan's method. Spectroscopic data were taken at room temperature (22° C.). Quantum yields were measured relative to fluorescein in 0.1 M NaOH (Φ=0.95).
The photophysical properties of the signaling entity were measured to observe the effect that introduction of the NTA functionality may have on the absorbance and/or emission of the signaling entity.

For another data set, the system named is HeLa cells. Nature of the data set: Cell permeability of living HeLa cells. To be noted: alone or as its Ni^2+ adduct, 5 μM, 5 min, 22° C., PBS. It counts as in vitro ADME. As to the method:
as §1

The subject of data set [3] is polyhistidine sequences on HEK 293-T cells transfected with pDisplay-6×His. Description: Fluorescent labeling of extracellular His6 tags on transfected HEK 293-T cells (confocal microscopy). It is filed as cell-based. Here is the method:
(§2) This example describes the incorporation of an affinity tag within a target analyte (e.g., a cell). A polyhistidine affinity tag was incorporated within a plasmid, which was then used for transfection with the target cell. pDisplay-6×His was constructed by introduction of an oligonucleotide encoding for a His6 tag (5′-CATCATCATCATCATCAT-3′) into a pDisplay plasmid (Invitrogen) digested with BglII and SalI.
(§3) Both HeLa and HEK 293-T cells were cultured in Dulbecco's Modified Eagle Medium (DMEM) supplemented with 10% fetal calf serum (FCS, Invitrogen), glutamine (2 mM), Penicillin (100 units/mL) and Streptomycin (100 μg/mL). The cells were passed and plated on 18 mm glass coverslips coated with 0.2% gelatin 36 hours before transfection. […]
(§4) The fluorescently-labeled cells may be monitored by confocal microscopy. Confocal images of cells (NTA-DCF staining and mRFP fluorescence) were obtained with a Zeiss LSM510 microscope equipped with a 100× objective. […] Images of cells stained with Hoechst 33285 were obtained with a Zeiss Axioscope fluorescence microscope equipped with a 40× objective and a Hamamatsu digital camera. […]
(§5) A metal chelator was added to observe the effect on binding of NTA-DCF probe to the target cell. […] In the absence of EDTA or a similar metal scavenging agent, the label-protein construct persisted for at least 20 min after washing, but its stability has not yet been fully assessed.

Data set [4] deals with polyhistidine sequences on HeLa cells transfected with pDisplay-6×His. Nature of the data set: Fluorescent labeling of extracellular His6 tags on transfected HeLa cells (confocal microscopy). It counts as cell-based. Here is the method: as §2, §3, §4, §5
Where [5] appears, read: pDisplay-6×His, premixed with equimolar NiCl2.

Regarding `O=C(O)CN(CC(=O)O)C(CCCCNC(=O)c1ccc(C(=O)O)c(-c2c3cc(Cl)c(=O)cc-3oc3cc(O)c(Cl)cc23)c1)C(=O)O` (centres unmarked) [NTA-DCF, N-[5-(Bis-carboxymethyl-amino)-5-carboxy-pentyl]-2-(2,7-dichloro-6-hydroxy-3-oxo-3H-xanthen-9-yl)-terephthalamic acid], the melting point was 182 °C (dec.). Also, the “Toxicity (nuclear morphology study)” value in data set [1] (5-μM dose, five min incubation, FIG. 7) was “not toxic”. The “Change of size and shape of nuclei” value in data set [1] (addition of NTA-DCF, five min, Hoechst staining) was “Neither the size nor shapes of the nuclei change”. In addition, in the data set on HEK 293-T cells, the Entry into cells result was “not enter”. In addition, the “Decrease in fluorescence emission upon addition of NiCl2” value in data set [2] (50 mM PIPES, 100 mM KCl, pH 7.0, FIG. 2) is listed as 5%. The “Quantum yield Φ after chelation of a paramagnetic metal ion” value in data set [2] (after chelation of Ni^2+, relative to fluorescein in 0.1 M NaOH) worked out at 0.72. Further, in data set [2] (at 504 nm), the “Extinction coefficient ε” value is 86000 M⁻¹ cm⁻¹. Further, the “Quantum yield Φ” value in data set [2] (50 mM PIPES, 100 mM KCl) is listed as 0.78. Moreover, in data set [2] (pH 7 buffer), the Absorption band turned out to be 504 nm and the “Emission λmax” value worked out at 527 nm. Moreover, in the data set with HeLa cells, the Entry into cells result was “not enter”. Also, in data set [3] (pDisplay without His6 tags, 5 μM NTA-DCF and 5 μM NiCl2, FIG. 5B), the “Binding of the probe when the polyhistidine tag is not expressed” value is “blocked”. Besides, the “Fluorescent labeling of polyhistidine sequences on extracellular plasma membrane surface” value in data set [3] (setting [5]) was “fluorescently label”. Moreover, in data set [4] (5 μM NTA-DCF without NiCl2, 5 min, FIG. 4B), the “Binding of the probe when Ni^2+ is unavailable” value is recorded as “blocked”. The “Fluorescent labeling of polyhistidine sequences on extracellular plasma membrane surface” value in data set [4] (setting [5]) was “fluorescently label”.

Take `O=C1OC2(c3cc(Cl)c(O)cc3Oc3cc(O)c(Cl)cc32)c2ccccc21` [2′,7′-dichlorofluorescein, reference compound]: in data set [2] (50 mM PIPES, 100 mM KCl), the “Quantum yield Φ” value was determined as 0.88. The “Emission λmax” value in data set [2] (pH 7 buffer) is 526 nm.

For orientation: melting point means the temperature of the solid-liquid transition.
